Twelve molecules from patent publication US7365069B2, “Pyrimidone derivatives” (Bexel Pharmaceuticals Inc., priority 2002, dated 2008) can be followed below.

Data set [1] concerns Male Wistar rats. The data set can be described thus: Rat carrageenan paw edema test. The data set is classed as in vivo. The settings on record: 10 mg/kg body weight, oral, paw volume 3 hours after carrageenan, read-out: Rat Paw Edema model % inhibition. Here is the method:
Rat Carrageenan Paw Edema Test
(§1) The carrageenan paw edema test is performed as described by Winter et al (Proc. Soc. Exp. Biol. Med, 111, 544, 1962). Male Wistar rats are selected and the body weights are equivalent within each group. The rats are fasted for eighteen hours with free access to water. The rats are dosed orally with the test compound suspended in vehicle containing 0.5% methylcellulose. The control rats are administered the vehicle alone. After an hour, the rats are injected with 0.1 ml of 1% Carrageenan solution in 0.9% saline into the sub-plantar surface of the right hind paw. Paw volume is measured using water plethysmograph before and after 3 hours of carrageenan injection. The average of foot swelling in drug treated animals is compared with that of control animals. Anti-inflammatory activity is expressed as the percentage inhibition of edema compared with control group [Arzneim-Forsch/Drug Res., 43(I), 1, 44-50,1993; Ottemess and Bliven, Laboratory Models for Testing NSAIDs, In Non-Steroidal Anti-Inflammatory Drugs, (J. Lombardino, ed. 1985)]. In order to evaluate their role on the ulcer formation, the animals are sacrificed and the stomach is taken out and flushed with 1% formalin. The stomach is opened along the greater curvature. The haemorrhagic puncta and sulci are identified microscopically and images are captured. The stomach lesions are calculated.
(Carrageenan injected into the paw causes an acute inflammation.)

A further data set concerns the target T1, COX-2 (Homo sapiens, UniProt P35354).
T1 construct: incubation of human blood with lipopolysaccharide (LPS), which induces COX-2 production in the blood; endogenous in cells; host or cells: fresh human whole blood from volunteers, treated with aspirin and then LPS
T1 sequence (P35354 18-604): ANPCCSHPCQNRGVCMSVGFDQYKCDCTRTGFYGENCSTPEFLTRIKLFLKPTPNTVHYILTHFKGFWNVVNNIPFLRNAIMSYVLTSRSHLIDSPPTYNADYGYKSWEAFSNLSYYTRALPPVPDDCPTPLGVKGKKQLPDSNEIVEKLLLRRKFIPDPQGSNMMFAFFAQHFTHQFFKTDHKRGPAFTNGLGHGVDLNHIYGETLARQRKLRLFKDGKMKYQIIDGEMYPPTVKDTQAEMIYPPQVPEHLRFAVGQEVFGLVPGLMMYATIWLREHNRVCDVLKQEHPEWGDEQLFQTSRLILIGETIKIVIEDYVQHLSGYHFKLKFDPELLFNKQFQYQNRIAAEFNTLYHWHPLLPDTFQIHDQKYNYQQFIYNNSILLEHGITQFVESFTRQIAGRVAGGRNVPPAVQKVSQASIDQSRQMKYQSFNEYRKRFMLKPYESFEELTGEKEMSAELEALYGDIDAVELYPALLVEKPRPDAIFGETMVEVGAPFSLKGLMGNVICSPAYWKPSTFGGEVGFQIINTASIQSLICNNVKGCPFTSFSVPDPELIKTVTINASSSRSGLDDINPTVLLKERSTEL
Description: Human whole blood assay, COX-2 inhibition (PGE2 ELISA after LPS). The data set is classed as cell-based. The settings on record: LPS 24 h. In a few lines: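 Fresh EDTA blood from healthy male donors was given aspirin (10 μg/ml) to inactivate COX-1. LPS (10 μg/ml) was then added together with test agent or vehicle, and the blood was incubated 24 h at 37° C. Plasma PGE2 was measured by ELISA.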

In data set [2] the test system is Male Wistar rats. Description: Gastroulcerogenic potential (stomach lesions after the paw edema test). It counts as in vivo. The settings on record: 10 mg/kg body weight, oral, rat. The protocol: as §1
Another data set relates to IL-6. The data set can be described thus: IL-6 production in LPS-stimulated human whole blood. It counts as cell-based. The settings on record: LPS 4 h. Here is the method:
This assay determines the effect of test compounds on the production of IL-6 from human whole blood. Compounds are tested for their ability to downregulate the production of IL-6 in activated whole blood. The test compounds are pre-incubated for 15 minutes at 37° C. and then stimulated with Lipopolysaccharide (Salmonella abortus equi, 1 μg/ml) for 4 h at 37° C. in 5% CO2. The levels of Interleukin-6 are estimated using Enzyme linked Immunosorbent assay performed in a 96 well format as per the procedure of the manufacturer (Cayman Chemical, Ann Arbor, USA).

The test system of a further data set is MCF-7. Description: DTP human tumor cell line one-dose prescreen, MCF-7. The data set is classed as cell-based. The settings on record: MCF7, 48 hours, Alamar Blue, test/control, read-out: Percentage growth Breast MCF-7. For orientation: The colour change of resazurin is a common sign of viable cells or microbes.
A further data set deals with SF-268. The data set can be described thus: DTP human tumor cell line one-dose prescreen, SF-268. It counts as cell-based. The settings on record: 48 hours, Alamar Blue, test/control, read-out: Percentage growth CNS SF-268.
Another data set relates to NCI-H460. Description: DTP human tumor cell line one-dose prescreen, NCI-H460. It counts as cell-based. The settings on record: 48 hours, Alamar Blue, test/control, read-out: Percentage growth Lung NCI-H460.
The next data set relates to TNF-α. The data set can be described thus: TNF-α production in LPS-stimulated human whole blood. It counts as cell-based. The settings on record: LPS 4 h. In short, it runs like this:
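Human whole blood pre-incubated with compound 15 min at 37° C., then stimulated with LPS (Salmonella abortus equi, 1 μg/ml) for 4 h at 37° C. in 5% CO2. TNF-α quantified by ELISA.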

The term inhibition denotes the relative decrease from the control value, in per cent. Usually melting point stands for the temperature, or range, at which the solid turns liquid.

`CSc1ccc(-n2c(-c3ccc(C(F)(F)F)cc3)nc(SC)c(C#N)c2=O)cc1` [Example 4] gave a melting point of 228 to 229 °C. In addition, the inhibition in vivo at 10 mg/kg with Male Wistar rats [1] was found to be 38.5%. The same molecule had an inhibition at 10 µM against COX-2 of 50.1%. In addition, in the data set on Male Wistar rats [2], the “Gastroulcerogenic potential (% incidence of ulceration)” value was determined as 25%. This molecule also registered an inhibition at 0.25 µM in the data set with IL-6 of 48.4%.

Regarding `CS(=O)(=O)c1ccc(-n2c(-c3ccc(F)cc3)nc(N3CCOCC3)c(C(N)=O)c2=O)cc1` [Example 50, 5-carboxamido-2-(4-fluorophenyl)-1-[4-(methylsulfonyl)phenyl]-4-morpholin-4-yl-6-oxo-1,6-dihydropyrimidine], the melting point lay in the range of 255 to 258 °C. Besides, the activity at 50 µM in the data set with MCF-7 amounted to 92%. Further, the activity at 50 µM with SF-268 was found to be 97%. For the same molecule, the activity at 50 µM in the data set on NCI-H460 is 94%.

`CSc1ccc(-c2nc(SC)c(C#N)c(=O)n2-c2ccc(C)cc2)cc1` [Example 6, 5-cyano-1-(4-methylphenyl)-4-(methylthio)-2-[4-(methylthio)phenyl]-6-oxo-1,6-dihydropyrimidine] returned a melting point of 196 to 198 °C. The inhibition at 1 µM with TNF-α came out at 28.8%. For the same molecule, in the data set on Male Wistar rats [1], the inhibition in vivo at 10 mg/kg came to 40.2%. In addition, 1 µM produced 55.7% inhibition on COX-2. Also, the “Gastroulcerogenic potential (% incidence of ulceration)” value with Male Wistar rats [2] came out at 25%. In the data set on IL-6, testing at 0.25 µM gave an inhibition of 41.4%.

For `CSc1ccc(-n2c(-c3ccc(F)cc3)nc(SC)c(C#N)c2=O)cc1` [Example 2, 5-cyano-2-(4-fluorophenyl)-4-(methylthio)-1-[4-(methylthio)phenyl]-6-oxo-1,6-dihydropyrimidine], the melting point was 204 to 207 °C. Besides, in the data set with Male Wistar rats [1], the inhibition in vivo at 10 mg/kg stood at 39%. The inhibition at 1 µM against COX-2 was determined as 53.4%. In the data set on Male Wistar rats [2], the “Gastroulcerogenic potential (% incidence of ulceration)” value is 25%. Moreover, the inhibition at 0.25 µM in the data set with IL-6 came to 45%.

`CSc1ccc(-c2nc(SC)c(C#N)c(=O)n2-c2ccc(C(C)C)cc2)cc1` [Example 9, 5-cyano-1-(4-isopropylphenyl)-4-(methylthio)-2-[4-(methylthio)phenyl]-6-oxo-1,6-dihydropyrimidine] had a melting point of 180 to 181 °C. In addition, the inhibition in vivo at 10 mg/kg in the data set with Male Wistar rats [1] is 37.2%. Further, in the data set on Male Wistar rats [2], the “Gastroulcerogenic potential (% incidence of ulceration)” value worked out at 0%. Besides, 0.25 µM produced 31.1% inhibition in the data set with IL-6.

The molecule `CSc1ccc(-c2nc(SC)c(C#N)c(=O)n2-c2ccc(C(C)(C)C)cc2)cc1` [Example 22, 1-(4-tert-butylphenyl)-5-cyano-4-(methylthio)-2-[4-(methylthio)phenyl]-6-oxo-1,6-dihydropyrimidine] yielded a melting point of 233 to 236 °C. Moreover, the activity at 50 µM with MCF-7 came to 83%. The same molecule displayed an inhibition at 1 µM with TNF-α of 62.7%. The activity at 50 µM in the data set on NCI-H460 is 80%. The inhibition at 1 µM in the data set on IL-6 was found to be 66.3%.

`CSc1ccc(-n2c(-c3ccc(Cl)cc3)nc(SC)c(C#N)c2=O)cc1` [Example 1, 5-cyano-2-(4-chlorophenyl)-4-(methylthio)-1-[4-(methylthio)phenyl]-6-oxo-1,6-dihydropyrimidine] had a melting point of 206 to 207 °C. Further, at 0.1 µM the inhibition in the data set on TNF-α (0.1 μM) was 56.9%. Moreover, in the data set with Male Wistar rats [1], the inhibition in vivo at 10 mg/kg turned out to be 29%. Moreover, the inhibition at 10 µM at COX-2 came to 13%. In addition, in the data set on Male Wistar rats [2], the “Gastroulcerogenic potential (% incidence of ulceration)” value is reported as 75%. 0.1 µM produced 52.8% inhibition in the data set on IL-6 (0.1 μM).

With `CNc1nc(-c2ccc(F)cc2)n(-c2ccc(SC)cc2)c(=O)c1C#N` [Example 56, 5-cyano-2-(4-fluorophenyl)-4-(methylamino)-1-[4-(methylthio)phenyl]-6-oxo-1,6-dihydropyrimidine], the melting point was 219 to 222 °C. Moreover, the activity at 50 µM in the data set with MCF-7 amounted to 63%. The activity at 50 µM in the data set on SF-268 was 87%. The activity at 50 µM in the data set on NCI-H460 was 54%.

In turn, `CNc1nc(-c2ccc(F)cc2)n(-c2ccc(S(C)(=O)=O)cc2)c(=O)c1C(N)=O` [Example 49, 5-carboxamido-2-(4-fluorophenyl)-4-(methylamino)-1-[4-(methylsulfonyl)phenyl]-6-oxo-1,6-dihydropyrimidine] came in with a melting point greater than 300 °C. Further, the activity at 50 µM with MCF-7 was found to be 79%. Further, in the data set with SF-268, the activity at 50 µM turned out to be 88%. Besides, the activity at 50 µM with NCI-H460 is 72%.

`CSc1ccc(-c2nc(SC)c(C#N)c(=O)n2-c2ccc(C)c(C)c2)cc1` [Example 10, 5-cyano-1-(3,4-dimethylphenyl)-4-(methylthio)-2-[4-(methylthio)phenyl]-6-oxo-1,6-dihydropyrimidine] yielded a melting point of 234 to 236 °C. In the data set on TNF-α (10 μM), this molecule came in with an inhibition at 10 µM of 26.4%. In the data set on Male Wistar rats [1], the inhibition in vivo at 10 mg/kg was 68.6%. In addition, the inhibition at 0.1 µM on COX-2 (0.1 μM) was 62.8%. Moreover, the “Gastroulcerogenic potential (% incidence of ulceration)” value with Male Wistar rats [2] came out at 0%. Besides, at 1 µM the inhibition in the data set on IL-6 was 48.6%.

For the molecule `CSc1nc(-c2ccc(S(C)(=O)=O)cc2)n(-c2ccc(C)cc2)c(=O)c1C#N` [Example 7, 5-cyano-2-[(4-methylsulphonyl)phenyl]-4-(methylthio)-1-(4-methylphenyl)-6-oxo-1,6-dihydropyrimidine], the melting point was in the range of 242 to 244 °C. The inhibition in vivo at 10 mg/kg with Male Wistar rats [1] is 28.1%. This molecule returned an inhibition at 0.25 µM at COX-2 (0.25 μM) of 31.7%. Further, in the data set on Male Wistar rats [2], the “Gastroulcerogenic potential (% incidence of ulceration)” value is on record as 25%. Moreover, the inhibition at 1 µM in the data set with IL-6 turned out to be 37.1%.

Molecule `CSc1ccc(-c2nc(SC)c(C#N)c(=O)n2-c2ccc(F)cc2)cc1` [Example 5, 5-cyano-2-[(4-methylthio)phenyl]-4-(methylthio)-1-[4-fluorophenyl]-6-oxo-1,6-dihydropyrimidine] showed a melting point of 219 to 221 °C. In addition, the inhibition in vivo at 10 mg/kg with Male Wistar rats [1] amounted to 13.3%. At COX-2, 1 µM produced 40.5% inhibition. Moreover, the “Gastroulcerogenic potential (% incidence of ulceration)” value with Male Wistar rats [2] stood at 37.5%. The molecule also displayed an inhibition at 0.25 µM in the data set on IL-6 of 51%.
